The subject of data set [1] is intraocular tissue (retinal tissue incl. photoreceptor cell layer, vitreous body) of Zebrafish 7-day-old embryo. The data set can be described thus: Staining of intraocular tissue of Zebrafish fry by exposure to staining liquid, ocular tissue section observed by confocal microscope. It counts as in vivo. As to conditions: Zebrafish 7 dpf fry, 1 μg/mL, 1 hour exposure, fixed ocular section.

The nature of data set [2]: Excitation and fluorescence wavelengths by fluorescence spectrometer FL4500. As to conditions: in nm (unit assumed). Type of data set: physicochemical.
Data set [3] relates to fundus (retina) of Zebrafish fry. Put plainly: In vivo intraocular observation of the fundus of living Zebrafish fry by confocal microscope.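 Also: +++ photoreceptor and inner retinal layers stained ++ mainly photoreceptor layer − none seen.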 Particulars: 1 μg/mL, 1 hour exposure. The protocol: In an arbitrary well of a 24-well multiplate, were put 1 mL of Staining Liquid 2 and a fry of Zebrafish, and the plate was left to stand for 1 hour. A process of removing Staining Liquid 2 in the well and replacing it by 1 mL of distilled water was then performed 3 times.
The fry was then put in a 0.7% agarose solution and placed on a slide glass to observe the fundus of the fry through a confocal microscope.

The mark [4] stands for this setting: aqueous solution: 10 mg/mL DMSO solution diluted to 1/500 with purified water (Examples 1 to 94).
Where [5] appears, read: Comparative Examples, solvent not stated.
Setting [6] is: values in a chloroform solution (Examples 95 to 106).

For `CCN(CC)c1ccc2cc(-c3nc4ccc(C)cc4o3)c(=O)oc2c1` [Compound 13], the Staining ability result in data set [1] is given as “+++”. In data set [2] (setting [4]), the “λem (fluorescence wavelength)” value worked out at 504 and the “λex (excitation wavelength)” value is recorded as 472. Further, the “Result of observation (staining ability, in vivo fundus)” value (“Result of observation” below) in data set [3] is “+++”.
For the molecule `CSc1ccc(N2c3ccc(/C=C4/SC(=S)N(CC(=O)O)C4=O)cc3C3CCCC32)cc1` (centres unmarked) [Compound 66], in data set [1], the Staining ability result is listed as “+++”. In data set [2] (setting [4]), the “λem (fluorescence wavelength)” value came out at 636 and the “λex (excitation wavelength)” value is 527. Further, in data set [3], the “Result of observation” value is reported as “++”.
For the molecule `COc1ccc2cc(N3c4ccc(/C=C5\SC(=S)N(CC(=O)O)C5=O)cc4[C@@H]4CCC[C@@H]43)ccc2c1` [Compound 36], the Staining ability result in data set [1] is “+++”. Moreover, in data set [2] (setting [4]), the “λem (fluorescence wavelength)” value is recorded as 661 and the “λex (excitation wavelength)” value is 566. Moreover, the “Result of observation” value in data set [3] was “++”.
`O=C1OC2(c3ccc(O)cc3Oc3cc(O)ccc32)c2ccccc21` [Fluorescein, fluorescein, reference compound]: the Staining ability result in data set [1] was “−”. In addition, the “Result of observation” value in data set [3] is “−”.
For the molecule `CCCN(CCC)c1ccc2cc(-c3nc4ccccc4[nH]3)c(=O)oc2c1` [Compound 12], the Staining ability result in data set [1] is reported as “++”. In addition, in data set [2] (setting [4]), the “λem (fluorescence wavelength)” value turned out to be 509 and the “λex (excitation wavelength)” value turned out to be 463. Also, in data set [3], the “Result of observation” value is listed as “++”.
As to `CCN(CC)c1ccc2cc(-c3nc4ccccc4[nH]3)c(=O)oc2c1` [Compound 9], in data set [1], the Staining ability result is listed as “++”. In data set [2] (setting [4]), the “λem (fluorescence wavelength)” value turned out to be 514 and the “λex (excitation wavelength)” value was 464. Moreover, the “Result of observation” value in data set [3] is given as “++”.
As for `O=C(O)CCN1C(=O)/C(=C\c2ccc3c(c2)C2CCCC2N3c2ccccc2)SC1=S` (centres unmarked) [Compound 48], the Staining ability result in data set [1] is listed as “++”. Moreover, in data set [2] (setting [4]), the “λem (fluorescence wavelength)” value came to 619 and the “λex (excitation wavelength)” value is 541. Further, the “Result of observation” value in data set [3] is “++”.
For the molecule `CC1(C)C(/C=C/C=C/C=C/C=C2\N(CCCCS(=O)(=O)O)c3ccc4ccccc4c3C2(C)C)=[N+](CCCCS(=O)(=O)[O-])c2ccc3ccccc3c21` [ICG, indocyanine green, reference compound], in data set [1], the Staining ability result is recorded as “−”. Further, in data set [2] (setting [5]), the “λem (fluorescence wavelength)” value was determined as 811 and the “λex (excitation wavelength)” value stood at 784. For the same molecule, the “Result of observation” value in data set [3] is “−”.
Take `O=C(O)CN1/C(=C/C2=C(Cl)C(=C/c3sc4ccccc4[n+]3CC(=O)O)/CCC2)Sc2ccccc21.[Br-]` [Compound 25]: in data set [1], the Stained site came to 1 and the Staining ability entry is on record as “++”. Besides, in data set [2] (setting [4]), the “λem (fluorescence wavelength)” value was determined as 671 and the “λex (excitation wavelength)” value came out at 635.
With `O=C(O)CN1C(=O)/C(=C2C=C/C(=C\c3ccc4c(c3)C3CCCC3N4c3ccccc3)C\2)SC1=S` (centres unmarked) [Compound 106], the Staining ability result in data set [1] is reported as “∘”. Further, in data set [2] (setting [4]), the “λem (fluorescence wavelength)” value is listed as 650 and the “λex (excitation wavelength)” value was 510.
In the case of `Cn1c(=O)cc2c3c(c(NCc4ccccc4)ccc31)C(=O)c1ccccc1-2` [Compound 3], the Staining ability result in data set [1] is listed as “++”. In data set [2] (setting [4]), the “λem (fluorescence wavelength)” value was determined as 556 and the “λex (excitation wavelength)” value is on record as 480.
Consider `COc1ccc(N2c3ccc(/C=C/C4=[N+](C)c5ccccc5C4(C)C)cc3C3CCCC32)cc1.[Br-]` (centres unmarked) [Compound 74], for which, in data set [1], the Stained site is on record as 1 and the Staining ability entry is on record as “++”. Besides, in data set [2] (setting [4]), the “λem (fluorescence wavelength)” value is given as 669 and the “λex (excitation wavelength)” value was 614.
On to `CC1(C)CCN2CCC(C)(C)c3c2c1cc1cc(-c2nc4ccccc4s2)c(=O)oc31` [Compound 8], for which, in data set [1], the Staining ability result is “++”. In addition, in data set [2] (setting [4]), the “λem (fluorescence wavelength)” value is given as 592 and the “λex (excitation wavelength)” value worked out at 477. Besides, the “Result of observation” value in data set [3] is “+++”.
With `Nc1c(OCCCOc2ccccc2)cc(O)c2c1C(=O)c1ccccc1C2=O` [Compound 112], the Staining ability entry in data set [1] is on record as “∘”. In addition, in data set [2] (setting [6]), the “λem (fluorescence wavelength)” value is reported as 568 and the “λex (excitation wavelength)” value was found to be 513.
`CCN1C(=O)/C(=c2\s/c(=C/c3ccc4c(c3)C3CCCC3N4c3ccc(SC)cc3)c(=O)n2CC(=O)O)SC1=S` (centres unmarked) [Compound 67]: the Staining ability entry in data set [1] is reported as “+++”. Moreover, in data set [2] (setting [4]), the “λem (fluorescence wavelength)” value was found to be 699 and the “λex (excitation wavelength)” value is 570.
As for `COc1ccc(N2c3ccc(/C=C/C4=[N+](CCC(=O)O)c5ccccc5C4(C)C)cc3C3CCCC32)cc1.[I-]` (centres unmarked) [Compound 71], the Staining ability result in data set [1] is “++”. For the same molecule, in data set [2] (setting [4]), the “λem (fluorescence wavelength)” value worked out at 671 and the “λex (excitation wavelength)” value turned out to be 592.
With `CCOC(=O)CN1C(=O)/C(=C\c2ccc3c(c2)C2CCCC2N3c2ccccc2)SC1=S` (centres unmarked) [Compound 52], in data set [1], the Staining ability entry was “++”. In data set [2] (setting [4]), the “λem (fluorescence wavelength)” value amounted to 638 and the “λex (excitation wavelength)” value is 580.
Take `CCN(CC)c1ccc2cc(-c3nc4ccccc4s3)c(=O)oc2c1` [Compound 7]: in data set [1], the Staining ability entry is “++”. Further, in data set [2] (setting [4]), the “λem (fluorescence wavelength)” value is given as 555 and the “λex (excitation wavelength)” value is 469. Further, the “Result of observation” value in data set [3] is given as “+++”.
As to `CCN1C(=O)/C(=c2\s/c(=C/c3ccc4c(c3)[C@@H]3CCC[C@@H]3N4c3ccc(OC)cc3)c(=O)n2CC(=O)O)SC1=S` [Compound 41], the Staining ability result in data set [1] is recorded as “++”. Further, in data set [2] (setting [4]), the “λem (fluorescence wavelength)” value turned out to be 679 and the “λex (excitation wavelength)” value came to 582.
As for `Cc1cc(C)cc(Nc2ccc3c4c(cc(=O)n3C)-c3ccccc3C(=O)c24)c1` [Compound 109], the Staining ability result in data set [1] is listed as “∘”. Also, in data set [2] (setting [4]), the “λem (fluorescence wavelength)” value is listed as 630 and the “λex (excitation wavelength)” value was determined as 540.
In the case of `CCN(CC)c1ccc2cc(-c3nc4cc(Cl)ccc4o3)c(=O)oc2c1` [Compound 11], the Staining ability entry in data set [1] is listed as “+++”. Also, in data set [2] (setting [4]), the “λem (fluorescence wavelength)” value is given as 476 and the “λex (excitation wavelength)” value was 422. In addition, in data set [3], the “Result of observation” value is reported as “+++”.
Turning to `O=C1C=Cc2cc(S(=O)(=O)O)cc(S(=O)(=O)O)c2/C1=N/Nc1ccc(S(=O)(=O)O)c2ccccc12` [Compound 4], the Staining ability result in data set [1] is recorded as “++”. Moreover, in data set [2] (setting [4]), the “λem (fluorescence wavelength)” value is on record as 560 and the “λex (excitation wavelength)” value was found to be 473.
Regarding `O=C(O)C[n+]1c(/C=C/c2ccc3c(c2)C2CCCC2N3Cc2ccccc2)sc2ccccc21.[Br-]` (centres unmarked) [Compound 63], in data set [1], the Stained site was 1 and the Staining ability result is “++”. In addition, in data set [2] (setting [4]), the “λem (fluorescence wavelength)” value is recorded as 611 and the “λex (excitation wavelength)” value came out at 566.
Turning to `CC1(C)C(/C=C/c2ccc3c(c2)C2CCCC2N3c2ccc(C=C(c3ccccc3)c3ccccc3)cc2)=[N+](CCC(=O)O)c2ccc3ccccc3c21` (centres unmarked) [Compound 76], the Staining ability result in data set [1] is on record as “++”. In data set [2] (setting [4]), the “λem (fluorescence wavelength)” value came to 724 and the “λex (excitation wavelength)” value turned out to be 674.
As to `CCCCCCCCN1C(=O)S/C(=c2/s/c(=C/c3ccc4c(c3)C3CCCC3N4c3ccc(OC)cc3)c(=O)n2CC(=O)OCC)C1=O` (centres unmarked) [Compound 58], the Staining ability result in data set [1] is given as “++”. Besides, in data set [2] (setting [4]), the “λem (fluorescence wavelength)” value worked out at 676 and the “λex (excitation wavelength)” value was 546.
As for `Nc1c(Br)cc(O)c2c1C(=O)c1ccccc1C2=O` [Compound 111], the Staining ability result in data set [1] is listed as “∘”. In data set [2] (setting [6]), the “λem (fluorescence wavelength)” value was 589 and the “λex (excitation wavelength)” value was determined as 527.
As for `CCC(/C=C1\Sc2ccccc2N1CC)=C\c1sc2ccccc2[n+]1CC.[I-]` [Compound 20], in data set [1], the Stained site amounted to 1 and the Staining ability entry is “++”. Also, in data set [2] (setting [4]), the “λem (fluorescence wavelength)” value is recorded as 567 and the “λex (excitation wavelength)” value was found to be 555.
Regarding `Cc1ccc(Nc2ccc3c4c(cc(=O)n3C)-c3ccccc3C(=O)c24)c(C)c1` [Compound 120], the Staining ability result in data set [1] is on record as “∘”. In data set [2] (setting [6]), the “λem (fluorescence wavelength)” value was determined as 609 and the “λex (excitation wavelength)” value is 537.
In the case of `COc1ccc(N2c3ccc(/C=C4/SC(=S)N(CCC(=O)O)C4=O)cc3C3CCCC32)cc1` (centres unmarked) [Compound 44], in data set [1], the Staining ability result is recorded as “++”. Further, in data set [2] (setting [4]), the “λem (fluorescence wavelength)” value was 651 and the “λex (excitation wavelength)” value was 564.
Consider `CCN(CC)c1ccc2cc3c(oc2c1)c(C#N)c(=O)n1c2ccccc2nc31` [Compound 6], for which, in data set [1], the Staining ability result was “++”. For the same molecule, in data set [2] (setting [4]), the “λem (fluorescence wavelength)” value is given as 576 and the “λex (excitation wavelength)” value is listed as 555. For the same molecule, in data set [3], the “Result of observation” value is “++”.

Values taken from patent publication US9764046B2, “Labeling composition for intraocular tissue, labeling method of intraocular tissue, and screening method” (CANON KABUSHIKI KAISHA, priority 2008, dated 2017).
